# Test results published in US8367606B2, “Method and compositions for prevention and treatment of diabetic and aged skin” (HealOr Ltd., priority 2005, dated 2013).
# B1: adiponectin: adipokine, a bioactive molecule secreted by adipocytes (protein, UniProt Q15848 19-244, looked up)
# Adiponectin: ETTTQGPGVLLPLPKGACTGWMAGIPGHPGHNGAPGRDGRDGTPGEKGEKGDPGLIGPKGDIGETGVPGAEGPRGFPGIQGRKGEPGEGAYVYRSAFSVGLETYVTIPNMPIRFTKIFYNQQNHYDGSTGKFHCNIPGLYYFAYHITVYMKDVKVSLFKKDKAMLFTYDQYQENNVDQASGSVLLHLEVGDQVWLQVYGEGERNGLYADNDNDSTFTGFLLYHDTN
# Key:
# [1] = test system: primary mouse keratinocytes; test: Filaggrin expression in differentiating keratinocytes (Western blot of cytoskeletal fraction); assay type: cell-based; details: 50, 150 and 300 nM; 0.12 mM Ca2+
# Procedure: Primary mouse keratinocytes were cultured in 0.05 mM Ca^+2 MEM and differentiation was induced by elevating Ca^+2 concentrations to 0.12 mM. Keratinocytes were treated with either PBS (control) or different concentrations (50, 150 and 300 nM) of troglitazone, a PPARγ activator. The cells were lysed and the cytoskeletal fraction was subjected to SDS-PAGE and blotted with anti-filaggrin antibody.
# [2] = test system: damaged skin from diabetic (STZ injected) C57BL/6J mice; test: Reconstruction of the hypodermis layer in damaged diabetic skin (H&E histology); assay type: in vivo; details: 7-9 days treatment; insulin 0.1 unit + peptide 1 μM, or adipsin 1 μM
# Procedure: Damaged skin from diabetic (STZ injected) C57BL/6J mice was treated with either PBS (control); a mixture of insulin (0.1 unit) and the N-myristoylated PKCα pseudosubstrate peptide of SEQ ID NO: 1 (1 μM); or adipsin (1 μM) for 7-9 days. Skin biopsies were then collected and embedded in paraffin, and histological sections were performed and stained with H&E. The sections were analyzed for presence of the hypodermis layer presented as a continuous layer of adipocytes, and the percent of total animals per each group with fully reconstituted hypodermis is shown in FIGS. 11A-11B.
# [3] = test system: damaged skin of diabetic (STZ injected) C57BL/6J mice; test: Inflammatory response in damaged skin of diabetic mice (H&E histology, abscess formation and leukocytosis); assay type: in vivo; details: adiponectin 0.1 μg/ml for 7 days; non-treated control 90%; severe = both abscess and leukocytosis
# Procedure: Damaged skin of diabetic (STZ injected) C57BL/6J mice was treated with either PBS (control) or adiponectin (0.1 μg/ml) for 7 days (total n=18). Thereafter, skin biopsies were collected, embedded in paraffin, and analyzed for inflammation by H&E histological staining. Inflammation was graded by abscess formation and excessive leukocytosis in the skin and proximal blood vessels, and severe inflammation was considered when both abscess and leukocytosis were apparent.
# In the next step, damaged skin from diabetic (STZ injected) C57BL/6J mice was treated with either PBS (control); a mixture of insulin (0.1 unit) and the N-myristoylated PKCα pseudosubstrate peptide of SEQ ID NO: 1 (1 μM); or Copolymer-1 (Teva Pharmaceutical Industries, Israel), (55 μg/ml) for 9 days (n=6 per each group). […] Thereafter, skin biopsies were collected, embedded in paraffin, and analyzed for inflammation by H&E histological staining. Inflammation was graded as described above.
molecule,measurement,setting,value
"Cc1c(C)c2c(c(C)c1O)CCC(C)(COc1ccc(CC3SC(=O)NC3=O)cc1)O2 (stereo not drawn) [troglitazone, 5-(4-(6-hydroxy-2,5,7,8-tetramethylchroman-2-yl-methoxy)benzyl)-2,4-thiazolidinedione]","filaggrin expression (terminal differentiation marker, FIG. 12)",[1],upregulation of filaggrin expression
"adipsin: adipokine, complement factor D secreted by adipocytes",reconstitution of the hypodermis layer (FIGS. 11A-11B),[2],can reconstruct the hypodermal subcutaneous layer
B1,percent of animals exhibiting severe inflammation of the skin,[3],20%
